Our source for the EC50 and CC50 values is US9724351B2, “Compounds for the treatment of paramoxyvirus viral infections” (priority 2012, dated 2017).

Series [1] concerns Respiratory Syncytial Virus (RSV) long strain (ATCC#VR-26). Description: RSV Antiviral Assay (CPE reduction assay). It counts as cell-based. To be noted: human respiratory syncytial virus, 120 h; HEp-2 cells infected with RSV long strain, 5 days, CCK-8 readout; bins (Table 2: less than 1 μM; Table 3: equal to or higher than 1 μM and less than 50 μM); read-out: 50% effective concentration (EC50). The protocol: CPE reduction assays are performed as described by Sidwell and Huffman et al., Appl. Microbiol. (1971) 22(5):797-801 with slight modifications. HEp-2 cells (ATCC#, CCL-23) are seeded at a density of 1,500 cells/30 μl/well into the 384-well cell plate(s) (Corning#3701) one day prior to the assay. Compounds are added into 384-well cell plates by Labcyte POD 810 Plate Assembler system. Each of the test compounds is provided to duplicate wells of a 384-well cell plate at final concentrations starting from 100 μM or 1 μM using ⅓ stepwise dilutions for 9 points. Quick-thaw Respiratory Syncytial Virus (RSV) long strain (ATCC#VR-26) stock in a 37° C. water bath. Place on ice until ready to use. Viruses are diluted to the concentration of 100 TCID50/30 μl with medium and 30 μl diluted RSV are added into related wells of 384-well cell plates. For each plate, sixteen wells are set aside as uninfected, untreated cell controls (CC), and nine wells per test plate receive virus only as a control for virus replication (VC). The final DMSO concentration of all wells is 1%. Place the plates at 37° C., 5% CO2 for 5 days.
After 5 days incubation, observe the CPE of cells in all wells. […] Six μl of cell counting kit-8 reagent (CCK-8, Dojindo Molecular Technologies Inc., CK04-20) are added to each well, which allows colorimetric assays to determine the number of viable cells through the dehydrogenase activity detection. After 3-4 hour incubation, the absorbance of each well is measured with a spectrophotometric plate reader at 450 nm wavelength, using a 630 nm filter as background according to manufacturer's instruction. The 50% effective concentration (EC50) is calculated by using regression analysis, based on the mean O.D. at each concentration of compound.

A short description of series [2]: Cytotoxicity Determination. The class given is cell-based. To be noted: human, HEp-2 cells, without addition of virus, CCK-8 readout, bins (Table 4: greater than 100 μM; Table 5: equal to or less than 100 μM and greater than 10 μM), read-out: 50% cytotoxicity concentration (CC50). As to the method: In order to determine the compound cytotoxicity, in parallel, each of the compounds is applied to duplicate wells in a 384-well cell plate at serial final concentrations starting from 100 μM using ½ stepwise dilutions for 7 points without addition of virus. Incubate the cells at 37° C., 5% CO2 for 5 days. Add 6 μl CCK-8 into each well and incubate in a CO2 incubator at 37° C. for 3-4 hours. Read the plates to obtain the optical densities which are used to calculate 50% cytotoxicity concentration (CC50).

Turning to `COc1ccc(C(=O)NCC(=O)c2ccc(OC)c(-c3csc4ccccc34)n2)cc1OC` [Compound 1508], the EC50 in series [1] is < 1 µM. In addition, the CC50 at 5 days in series [2] was > 100 µM.
With `COc1ccc(C(=O)NCC(=O)c2nc(-c3csc4c(F)cccc34)c(C)n2C)cc1OC` [Compound 1358], in series [1], the EC50 was < 1 µM. Further, the CC50 at 5 days in series [2] was in the range of 10 to 100 µM.
With `COc1ccc(C(=O)NCC(=O)c2c[nH]cc(-c3csc4c(F)cccc34)c2=O)cc1OC` [Compound 1337], the EC50 in series [1] was in the range of 1 to 50 µM. In series [2], the CC50 at 5 days was > 100 µM.
As for `CCN(CC)c1ccc(C(=O)NCC(=O)N/N=C(\C)c2csc3ccccc23)cc1` [Compound 469], the EC50 in series [1] fell in the range of 1 to 50 µM. Further, the CC50 at 5 days in series [2] fell in the range of 10 to 100 µM.
As to `COc1cc(C(=O)NCC(=O)c2ccc(OC)c(-c3ccc(F)cc3F)n2)ccc1OCCO` [Compound 1601], the EC50 in series [1] was < 1 µM. Also, in series [2], the CC50 at 5 days is > 100 µM.
In the case of `COc1ccc(C(=O)NCC(=O)N/N=C(/c2ccccc2)c2ccc(F)cc2)cc1OC` [Compound 430], the EC50 in series [1] fell in the range of 1 to 50 µM. Besides, the CC50 at 5 days in series [2] is > 100 µM.
The like results for `COc1cc(C(=O)NCC(=O)N(C)/N=C/c2c(C)sc3c(F)cccc23)ccc1OCCO` [Compound 2300] were, in that order, < 1 µM and 10 to 100 µM.
For the compound `COc1ccc(C(=O)NCC(=O)N/N=C/c2cc3c(F)cccc3s2)cc1OC` [Compound 400-2], the EC50 in series [1] lay in the range of 1 to 50 µM. For the same compound, in series [2], the CC50 at 5 days is 10 to 100 µM.
Regarding `CCCC/C(=N\NC(=O)CNC(=O)c1ccc(OC(C)C)c(OC)c1)c1csc2ccccc12` [Compound 476], the EC50 in series [1] was < 1 µM. For the same compound, in series [2], the CC50 at 5 days was > 100 µM.
Take `CCN1C/C(=N\NC(=O)CNC(=O)c2ccc(OC)c(OC)c2)c2c(sc3c(F)cccc23)C1` [Compound 400-23]: the EC50 in series [1] was < 1 µM. The CC50 at 5 days in series [2] is > 100 µM.
Take `COc1ccc(C(=O)NCC(=O)c2ccc(OC)c(-c3ccc(OC(F)(F)F)cc3)n2)cc1OC` [Compound 1532]: the EC50 in series [1] was 1 to 50 µM. Also, the CC50 at 5 days in series [2] was 10 to 100 µM.
For `COc1ccc(C(=O)NCC(=O)c2ccc(OC)c(-c3cn[nH]c3)n2)cc1OC` [Compound 1533], the EC50 in series [1] fell in the range of 1 to 50 µM. Also, the CC50 at 5 days in series [2] was > 100 µM.
In the case of `COCC/C(=N\NC(=O)CNC(=O)c1ccc(OC)c(OC)c1)c1csc2ccccc12` [Compound 493], in series [1], the EC50 is < 1 µM. The CC50 at 5 days in series [2] is > 100 µM.
For the compound `CCCC/C(=N\NC(=O)CNC(=O)c1cc(OC)c(OC)cc1Br)c1csc2ccccc12` [Compound 245], the EC50 in series [1] fell in the range of 1 to 50 µM. Besides, the CC50 at 5 days in series [2] was 10 to 100 µM.
With `COCCOc1ccc(C(=O)NCC(=O)c2ccc(OC)c(-c3ccc(F)c(Cl)c3)n2)cc1C` [Compound 1317], in series [1], the EC50 was in the range of 1 to 50 µM. Moreover, the CC50 at 5 days in series [2] was > 100 µM.
For `COc1cc(C(=O)NCC(=O)c2ccc(OC)c(-c3c[s+]([O-])c4c(F)cccc34)n2)ccc1OCCO` (stereo not shown) [Compound 3302] the same measures were < 1 µM and 10 to 100 µM.
Turning to `COc1ccc(C(=O)NCC(=O)c2ccc3cccnc3c2)cc1OC` [Compound 1700], the EC50 in series [1] was 1 to 50 µM. Further, the CC50 at 5 days in series [2] was > 100 µM.
For `COc1ccc(C(=O)NCC(=O)N/N=C/c2csc3c(Cl)cccc23)cc1OC` [Compound 400-12] the same measures were 1 to 50 µM and 10 to 100 µM.
For `COc1ccc(C(=O)NCC(=O)c2ccc3ccccc3n2)cc1OC` [Compound 1701] the same measures were 1 to 50 µM and > 100 µM.
On to `COc1ccc(C(=O)NCC(=O)N/N=C(\C)c2ccnc3ccccc23)cc1OC` [Compound 449], for which the EC50 in series [1] was 1 to 50 µM. Also, in series [2], the CC50 at 5 days is > 100 µM.
Regarding `COc1cc(C(=O)NCC(=O)c2ccc(OC)c(-c3ccc(C(F)(F)F)cc3)n2)ccc1OCCO` [Compound 1605], the EC50 in series [1] is < 1 µM. For the same compound, the CC50 at 5 days in series [2] lay within 10 to 100 µM.
With `COc1ccc(C(=O)NCC(=O)c2cc(C)cc(-c3csc4c(F)cccc34)n2)cc1OC` [Compound 1211], in series [1], the EC50 is < 1 µM. For the same compound, in series [2], the CC50 at 5 days is > 100 µM.
For the compound `COc1ccc(C(=O)NCC(=O)c2ccc(OC)c(-c3c(C)sc4cccnc34)n2)cc1OC` [Compound 1502], the EC50 in series [1] fell in the range of 1 to 50 µM. Further, the CC50 at 5 days in series [2] is > 100 µM.
As to `C=CCC/C(=N\NC(=O)CNC(=O)c1ccc(OCC)c(OC)c1)c1csc2ccccc12` [Compound 458A], the EC50 in series [1] was < 1 µM. Further, the CC50 at 5 days in series [2] lay in the range of 10 to 100 µM.
In the case of `COCCOc1ccc(C(=O)NCC(=O)N/N=C(\CCOC)c2csc3c(F)cccc23)cc1OC` [Compound 513], in series [1], the EC50 is < 1 µM. Besides, in series [2], the CC50 at 5 days was > 100 µM.
In the case of `COc1cc(C(=O)NCC(=O)c2ccc(OC)c(-c3ccc(Cl)c(Cl)c3)n2)ccc1OCCO` [Compound 1616], the EC50 in series [1] was < 1 µM. Also, the CC50 at 5 days in series [2] is > 100 µM.
For `COc1cc(C(=O)NCC(=O)N/N=C(\C)c2csc3ccccc23)ccc1OCC1CC1` [Compound 510] the same measures were < 1 µM and 10 to 100 µM.
For the compound `COc1cc(C(=O)NCC(=O)c2ccc(OC)c(-c3ccc(F)c(Cl)c3)n2)ccc1OCC(=O)N(C)C` [Compound 1322], in series [1], the EC50 was < 1 µM. Moreover, in series [2], the CC50 at 5 days is > 100 µM.
As to `CCN(CC)c1cc(C(=O)NCC(=O)N/N=C(\C)c2csc3ccccc23)cs1` [Compound 511], in series [1], the EC50 was in the range of 1 to 50 µM. The CC50 at 5 days in series [2] is 10 to 100 µM.
As for `CCc1cc(C(=O)CNC(=O)c2ccc(OCCO)c(OC)c2)nc(-c2c[nH]c3c(F)cccc23)c1` [Compound 2112], the EC50 in series [1] is < 1 µM. Further, in series [2], the CC50 at 5 days is > 100 µM.
With `COc1ccc(C(=O)NCC(=O)N/N=C(\C)c2csc3c(N)cccc23)cc1OC` [Compound 497], in series [1], the EC50 was 1 to 50 µM. The CC50 at 5 days in series [2] is > 100 µM.
On to `COc1ccc(C(=O)NCC(=O)c2ccc(OC)c(-c3ccc4ccccc4c3)n2)cc1OC` [Compound 1517], for which the EC50 in series [1] lay in the range of 1 to 50 µM. The CC50 at 5 days in series [2] is > 100 µM.
For the compound `COc1cc(C(=O)NCC(=O)c2ccc(OC)c(-c3csc4ccc(C#N)cc34)n2)ccc1OCCO` [Compound 1620], in series [1], the EC50 was in the range of 1 to 50 µM. Besides, the CC50 at 5 days in series [2] fell in the range of 10 to 100 µM.
Regarding `COc1ccc(C(=O)N(C)NC(=O)c2cccc(-c3csc4c(F)cccc34)n2)cc1OC` [Compound 3101], in series [1], the EC50 lay in the range of 1 to 50 µM. Also, the CC50 at 5 days in series [2] was 10 to 100 µM.
Turning to `CCOc1ccc(C(=O)NCC(=O)N/N=C2\CN(CC)Cc3sc4c(F)cccc4c32)cc1OC` [Compound 464], the EC50 in series [1] was < 1 µM. For the same compound, in series [2], the CC50 at 5 days is > 100 µM.
As for `COc1ccc(C(=O)NCC(=O)c2ccc(OC)c(-c3ccc(Cl)cc3)n2)cc1OC` [Compound 1525], the EC50 in series [1] was < 1 µM. The CC50 at 5 days in series [2] is > 100 µM.
As to `COc1cc(C(=O)NCC(=O)c2ccc(OC)c(-c3c(C)[nH]c4c(F)cccc34)n2)ccc1OCCO` [Compound 4002], the EC50 in series [1] is < 1 µM. Also, the CC50 at 5 days in series [2] was 10 to 100 µM.
`COc1cc(C(=O)NCC(=O)c2ccc(OC)c(-c3ccc(F)c(Cl)c3)n2)ccc1OCc1cnc[nH]1` [Compound 1332]: the EC50 in series [1] is < 1 µM. Moreover, the CC50 at 5 days in series [2] was in the range of 10 to 100 µM.
With `COCCc1ccc(C(=O)NCC(=O)c2ccc(OC)c(-c3ccc(F)c(Cl)c3)n2)cc1OC` [Compound 1331], in series [1], the EC50 is 1 to 50 µM. For the same compound, the CC50 at 5 days in series [2] lay in the range of 10 to 100 µM.
On to `COc1cc(C(=O)NCC(=O)c2ccc(OC)c(-c3ccc(Cl)nc3)n2)ccc1OCCO` [Compound 1330], for which the EC50 in series [1] fell in the range of 1 to 50 µM. For the same compound, the CC50 at 5 days in series [2] was > 100 µM.
As to `COc1cc(C(=O)NCC(=O)c2cc(C(C)C)cc(-c3csc4c(F)cccc34)n2)ccc1OCCO` [Compound 1227], the EC50 in series [1] is < 1 µM. The CC50 at 5 days in series [2] lay in the range of 10 to 100 µM.
With `CCN(CC)c1ccc(C(=O)NCC(=O)c2ccc(OC)c(-c3ccc(F)c(Cl)c3)n2)cc1` [Compound 1320], in series [1], the EC50 was in the range of 1 to 50 µM. The CC50 at 5 days in series [2] was > 100 µM.
Turning to `COc1cc(C(=O)N[C@@H](COC(C)(C)C)C(=O)c2ccc(OC)c(-c3csc4c(F)cccc34)n2)ccc1OCCO` [Compound 1819], the EC50 in series [1] is < 1 µM. Further, the CC50 at 5 days in series [2] fell in the range of 10 to 100 µM.
`COc1ccc(C(=O)NCC(=O)c2ccc(OC)c(-c3ccc(N4CCCCC4)cc3)n2)cc1OC` [Compound 1524]: in series [1], the EC50 is 1 to 50 µM. The CC50 at 5 days in series [2] is > 100 µM.
